From patent publication US7422694B2, “Process for the microbiological decontamination of water by means of photosensitive agents” (priority 2001, dated 2008)

Columns and labels:
[1] = system: Staphylococcus aureus; test: Decrease in Staphylococcus aureus viability on exposure to visible light in the presence of hematoporphyrin (FIG. 8); type: cell-based; details: hematoporphyrin at 0.1 pg/ml and 1 μg/ml, cells in stationary or logarithmic growth phase
Description: FIG. 8 is a plot where the experimental results relating to the decrease in Staphylococcus aureus viability on exposure to visible light in the presence of hematoporphyrin at 0.1 pg/ml (circles) and 1 μg/ml (squares) concentrations were plotted. Bacterial cells were either in the stationary (closed symbols) or in the logarithmic (open symbols) growth phase.

[2] = system: wild and antibiotics-resistant bacterial strains (e.g. Streptococcus and Staphylococcus strains), yeasts (e.g. Candida strains); test: Phototoxicity of hematoporphyrin towards bacterial strains and yeasts; type: cell-based

For hematoporphyrin, the “photosensitised inactivation of Staphylococcus aureus” value [1] was “effectively this porphyrin photosensitises the inactivation” and the phototoxicity [2] was “exhibited phototoxicity”.
